These results are taken from ChEMBL document CHEMBL5113538, “Discovery of Novel Allosteric EGFR L858R Inhibitors for the Treatment of Non-Small-Cell Lung Cancer as a Single Agent or in Combination with Osimertinib” (J Med Chem, 2022).

As usually defined, the IC50 is the concentration that inhibits the measured activity by half. The inhibition is the drop in the measured response relative to a control, in per cent. Low readings indicate little suppression, high ones strong suppression. The GI50 is the concentration giving 50% growth inhibition. In general, clearance refers to the volume of plasma or blood freed of the substance per unit of time. A high value points to a high capacity for elimination. A word on the Cmax: it is the peak of the concentration-time curve. The term AUC(0-t) denotes exposure summed from dosing to a finite time, without extrapolation to infinity. One may read the AUC(0-inf) as the area under the concentration-time curve extrapolated to infinity. Higher therefore signals more exposure. What is called bioavailability is dose-corrected exposure relative to a reference, in per cent. Read a low bioavailability as little systemic uptake.

The subject of data set [1] is BaF3. Briefly: Cytotoxicity against mouse BaF3 cells expressing EGFR L858R/T790M/C797S mutant assessed as reduction in cell viability measured after 72 hrs by cell titre glo luminescence assay. The class given is functional, cell-based. The note with it: BaF3, 72 h.
Another data set concerns the target D(2) dopamine receptor (Homo sapiens, UniProt P14416). Nature of the data set: Inhibition of dopamine D2 receptor (unknown origin).
The target in data set [2] is T1, Adenosine receptor A3 (Homo sapiens) (UniProt P0DMS8).
T1 sequence (whole entry): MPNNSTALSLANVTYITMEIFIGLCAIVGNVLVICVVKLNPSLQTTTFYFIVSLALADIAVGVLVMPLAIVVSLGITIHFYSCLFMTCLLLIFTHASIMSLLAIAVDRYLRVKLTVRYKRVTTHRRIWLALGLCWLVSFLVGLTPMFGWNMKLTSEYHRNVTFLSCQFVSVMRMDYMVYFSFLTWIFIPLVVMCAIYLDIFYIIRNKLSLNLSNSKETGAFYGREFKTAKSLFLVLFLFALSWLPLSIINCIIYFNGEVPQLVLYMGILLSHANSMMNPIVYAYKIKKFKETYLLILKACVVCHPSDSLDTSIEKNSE
Briefly: Inhibition of adenosine A3 receptor (unknown origin) at 10 uM relative to control.

In data set [3] the target is T2, Muscarinic acetylcholine receptor M2 (Homo sapiens, UniProt P08172).
T2 sequence (P08172 whole entry): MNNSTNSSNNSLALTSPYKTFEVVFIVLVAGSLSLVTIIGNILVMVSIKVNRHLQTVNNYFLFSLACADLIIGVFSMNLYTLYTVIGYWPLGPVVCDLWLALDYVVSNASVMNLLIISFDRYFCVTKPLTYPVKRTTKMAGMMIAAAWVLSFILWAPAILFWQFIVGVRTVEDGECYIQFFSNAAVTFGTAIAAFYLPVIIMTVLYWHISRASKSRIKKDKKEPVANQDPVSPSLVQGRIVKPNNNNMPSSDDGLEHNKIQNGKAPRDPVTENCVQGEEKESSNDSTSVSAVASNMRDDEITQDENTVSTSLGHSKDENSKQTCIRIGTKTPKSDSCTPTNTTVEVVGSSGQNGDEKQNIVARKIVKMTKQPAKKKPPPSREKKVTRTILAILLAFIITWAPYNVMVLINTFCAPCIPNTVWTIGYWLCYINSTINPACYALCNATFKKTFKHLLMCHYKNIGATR
Briefly: Inhibition of muscarinic M2 receptor (unknown origin).

Data set [4] concerns the target T3, Glucocorticoid receptor (Homo sapiens) (UniProt P04150).
T3 sequence (whole entry): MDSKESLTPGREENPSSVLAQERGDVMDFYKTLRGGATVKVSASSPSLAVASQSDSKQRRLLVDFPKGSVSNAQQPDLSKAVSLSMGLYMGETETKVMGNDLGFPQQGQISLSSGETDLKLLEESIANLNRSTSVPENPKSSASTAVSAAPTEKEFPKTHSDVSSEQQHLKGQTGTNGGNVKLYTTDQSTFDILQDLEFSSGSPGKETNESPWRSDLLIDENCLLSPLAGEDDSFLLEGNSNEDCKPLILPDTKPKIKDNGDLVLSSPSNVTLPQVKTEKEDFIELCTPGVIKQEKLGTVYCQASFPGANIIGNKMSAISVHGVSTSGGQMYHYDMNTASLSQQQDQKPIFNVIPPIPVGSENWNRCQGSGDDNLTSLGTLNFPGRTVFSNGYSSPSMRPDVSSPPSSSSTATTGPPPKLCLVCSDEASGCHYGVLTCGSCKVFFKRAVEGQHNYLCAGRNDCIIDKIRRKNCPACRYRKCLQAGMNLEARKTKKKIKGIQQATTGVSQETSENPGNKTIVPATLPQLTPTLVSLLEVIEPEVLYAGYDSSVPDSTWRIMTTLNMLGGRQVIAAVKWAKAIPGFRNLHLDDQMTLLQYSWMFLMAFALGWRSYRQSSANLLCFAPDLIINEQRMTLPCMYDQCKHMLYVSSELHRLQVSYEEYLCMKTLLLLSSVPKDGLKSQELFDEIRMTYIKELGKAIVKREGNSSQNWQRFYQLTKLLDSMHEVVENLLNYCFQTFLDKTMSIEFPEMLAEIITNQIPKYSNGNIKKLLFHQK
Briefly: Inhibition of glucocorticoid receptor (unknown origin) at 10 uM relative to control.

Another data set concerns the target T4, Glucocorticoid receptor (Homo sapiens, UniProt P04150).
T4 sequence (P04150 whole entry): T3 sequence (whole entry)
Briefly: Inhibition of glucocorticoid receptor (unknown origin).

The subject of another data set is L-363. Briefly: Antiproliferative activity against human L-363 cells assessed as cell growth inhibition. The class given is functional.
Another data set deals with SU-DHL-6. Briefly: Antiproliferative activity against human SU-DHL-6 cells assessed as cell growth inhibition. The data set is classed as functional.
Data set [5] is described as follows: Clearance in CD1 mouse at 1 mg/kg, iv administered as single dose measured after 24 hrs by LC-MS/MS analysis. The note with it: in vivo. The data set is classed as ADME, organism-based.
Data set [6] can be described thus: Volume of distribution at steady state in CD1 mouse at 1 mg/kg, iv administered as single dose measured after 24 hrs by LC-MS/MS analysis. Particulars: in vivo, read-out: Vdss. The class given is ADME, organism-based.
Data set [7] can be described thus: Cmax in CD1 mouse at 10 mg/kg, po administered as single dose measured after 24 hrs by LC-MS/MS analysis. The class given is ADME, organism-based. Also on record: dose 10 mg/kg, time 24 hrs, route po. The note with it: in vivo.
Data set [8] can be described thus: AUC(0 to t) in CD1 mouse at 10 mg/kg, po administered as single dose measured after 24 hrs by LC-MS/MS analysis. The class given is ADME, organism-based. Particulars: in vivo. The arrangement: time 24 hrs, dose 10 mg/kg, route po.
The nature of data set [9]: Tlast in CD1 mouse at 1 mg/kg, iv administered as single dose measured after 24 hrs by LC-MS/MS analysis. The data set is classed as ADME, organism-based. Particulars: in vivo.
The nature of data set [10]: AUC (0 to infinity) in CD1 mouse at 1 mg/kg, iv administered as single dose measured after 24 hrs by LC-MS/MS analysis. The class given is ADME, organism-based. The arrangement: time 24 hrs, dose 1 mg/kg, route iv. Particulars: in vivo.
A short description of data set [11]: Oral bioavailability in CD1 mouse at 10 mg/kg administered as single dose measured after 24 hrs by LC-MS/MS analysis. The data set is classed as ADME, organism-based. Particulars: in vivo.
Data set [12] has as its system BaF3. Briefly: Antitumor activity against mouse BaF3 cells harboring EGFR L858R/C797S mutant allografted in Balb/c nude mouse assessed as in tumor growth inhibition at 10 mg/kg, po administered twice daily measured after 6 days. The class given is functional. Particulars: BaF3, 144 h, time 6 day, read-out: TGI.
A short description of data set [13]: Toxicity in Balb/c nude mouse allografted with mouse BaF3 cells harboring EGFR L858R/C797S mutant assessed as tolerability at 10 mg/kg, po administered twice daily for 20 days. The data set is classed as organism-based. Particulars: in vivo, 480 h, time 20 day.
Data set [14] can be described thus: Toxicity in Balb/c nude mouse xenografted with human NCI-H1975 cells harboring EGFR L858R/T790M mutant assessed as change in body weight at 10 mg/kg, po administered twice daily measured after 14 days. The class given is organism-based. Particulars: in vivo, 336 h, time 14 day. (In xenograft studies the graft and the host belong to different species.)
Data set [15] addresses Epidermal growth factor receptor (Homo sapiens, UniProt P00533, C797S/L858R/T790M).
The target of data set [16] is Epidermal growth factor receptor (Homo sapiens, UniProt P00533, C797S/L858R).
Sequence of Epidermal growth factor receptor (Homo sapiens, UniProt P00533, C797S/L858R) (P00533 25-1210 C797S/L858R limits assumed): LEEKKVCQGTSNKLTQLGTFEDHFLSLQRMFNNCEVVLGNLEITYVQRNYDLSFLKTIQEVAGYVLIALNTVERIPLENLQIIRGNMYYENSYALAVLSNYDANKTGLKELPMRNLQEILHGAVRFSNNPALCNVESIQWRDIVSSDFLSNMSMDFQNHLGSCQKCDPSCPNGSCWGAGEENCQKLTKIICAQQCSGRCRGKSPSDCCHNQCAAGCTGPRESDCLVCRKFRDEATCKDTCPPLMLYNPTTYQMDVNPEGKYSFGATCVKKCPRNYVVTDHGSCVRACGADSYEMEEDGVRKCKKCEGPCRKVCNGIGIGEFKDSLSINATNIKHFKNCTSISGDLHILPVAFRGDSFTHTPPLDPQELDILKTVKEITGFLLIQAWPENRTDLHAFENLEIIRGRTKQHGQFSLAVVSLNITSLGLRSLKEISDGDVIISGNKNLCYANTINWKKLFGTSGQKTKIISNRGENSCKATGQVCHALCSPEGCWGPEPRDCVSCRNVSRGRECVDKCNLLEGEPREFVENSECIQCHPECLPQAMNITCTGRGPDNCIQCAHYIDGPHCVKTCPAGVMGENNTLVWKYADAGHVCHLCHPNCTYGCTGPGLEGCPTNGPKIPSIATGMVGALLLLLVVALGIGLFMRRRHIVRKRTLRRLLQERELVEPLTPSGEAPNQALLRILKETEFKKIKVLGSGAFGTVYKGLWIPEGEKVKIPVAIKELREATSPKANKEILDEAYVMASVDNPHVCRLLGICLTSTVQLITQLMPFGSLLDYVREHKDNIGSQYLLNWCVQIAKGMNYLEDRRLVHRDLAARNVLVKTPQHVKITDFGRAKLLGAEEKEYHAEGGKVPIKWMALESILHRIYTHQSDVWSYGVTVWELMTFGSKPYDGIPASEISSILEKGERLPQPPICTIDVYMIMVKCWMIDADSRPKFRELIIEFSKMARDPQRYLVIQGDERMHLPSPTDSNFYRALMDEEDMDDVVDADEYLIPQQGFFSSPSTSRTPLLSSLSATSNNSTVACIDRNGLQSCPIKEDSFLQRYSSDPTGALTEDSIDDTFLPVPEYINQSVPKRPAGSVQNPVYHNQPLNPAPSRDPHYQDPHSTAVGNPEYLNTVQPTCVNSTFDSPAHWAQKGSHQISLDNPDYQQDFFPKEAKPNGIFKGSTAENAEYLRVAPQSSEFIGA

Sequence of Epidermal growth factor receptor (Homo sapiens, UniProt P00533, C797S/L858R/T790M) (P00533 25-1210 T790M/C797S/L858R limits assumed): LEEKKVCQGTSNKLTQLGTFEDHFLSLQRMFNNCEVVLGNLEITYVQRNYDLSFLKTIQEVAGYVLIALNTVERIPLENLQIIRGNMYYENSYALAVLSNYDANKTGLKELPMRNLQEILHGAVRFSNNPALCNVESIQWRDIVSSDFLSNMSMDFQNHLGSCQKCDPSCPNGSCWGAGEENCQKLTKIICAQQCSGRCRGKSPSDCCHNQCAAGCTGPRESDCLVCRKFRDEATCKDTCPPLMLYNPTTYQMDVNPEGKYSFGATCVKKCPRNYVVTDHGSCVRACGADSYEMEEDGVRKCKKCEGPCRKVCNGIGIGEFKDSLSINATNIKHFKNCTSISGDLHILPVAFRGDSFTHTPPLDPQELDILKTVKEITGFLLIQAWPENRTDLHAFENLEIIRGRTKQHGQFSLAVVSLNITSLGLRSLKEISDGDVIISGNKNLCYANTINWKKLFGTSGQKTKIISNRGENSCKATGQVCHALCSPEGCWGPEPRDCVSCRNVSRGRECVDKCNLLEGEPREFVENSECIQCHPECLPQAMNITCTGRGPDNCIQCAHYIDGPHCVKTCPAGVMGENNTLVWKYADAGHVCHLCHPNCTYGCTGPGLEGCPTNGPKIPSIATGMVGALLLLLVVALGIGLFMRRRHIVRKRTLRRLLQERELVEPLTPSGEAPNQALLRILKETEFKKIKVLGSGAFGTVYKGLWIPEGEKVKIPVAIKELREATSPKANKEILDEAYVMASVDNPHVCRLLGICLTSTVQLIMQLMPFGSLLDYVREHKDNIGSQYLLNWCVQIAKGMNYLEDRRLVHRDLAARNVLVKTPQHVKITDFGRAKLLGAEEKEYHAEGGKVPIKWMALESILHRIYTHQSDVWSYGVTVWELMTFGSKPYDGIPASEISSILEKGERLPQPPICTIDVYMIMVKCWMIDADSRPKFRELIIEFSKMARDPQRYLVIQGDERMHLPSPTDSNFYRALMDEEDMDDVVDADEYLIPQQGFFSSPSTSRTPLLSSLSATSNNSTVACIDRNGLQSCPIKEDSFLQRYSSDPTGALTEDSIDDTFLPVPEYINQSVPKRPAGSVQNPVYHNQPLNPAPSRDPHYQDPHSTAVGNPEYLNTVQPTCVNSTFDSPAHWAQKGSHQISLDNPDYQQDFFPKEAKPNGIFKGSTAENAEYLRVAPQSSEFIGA
Sequence of D(2) dopamine receptor (P14416 whole entry): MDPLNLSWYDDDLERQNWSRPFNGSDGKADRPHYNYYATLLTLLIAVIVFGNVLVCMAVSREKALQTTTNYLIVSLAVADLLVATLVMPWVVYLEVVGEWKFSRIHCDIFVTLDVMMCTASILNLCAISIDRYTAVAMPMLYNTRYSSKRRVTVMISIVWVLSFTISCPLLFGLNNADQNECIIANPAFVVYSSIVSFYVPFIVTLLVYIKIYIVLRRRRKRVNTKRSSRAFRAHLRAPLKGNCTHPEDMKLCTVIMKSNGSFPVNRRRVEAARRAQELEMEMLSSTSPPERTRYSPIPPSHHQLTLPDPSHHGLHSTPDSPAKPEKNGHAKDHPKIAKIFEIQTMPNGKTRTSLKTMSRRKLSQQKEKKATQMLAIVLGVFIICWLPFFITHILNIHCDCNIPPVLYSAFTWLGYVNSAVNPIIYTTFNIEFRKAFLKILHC

On to `Cc1c(C#Cc2ccc(CN3CCC(CO)CC3)cc2)cc(C(F)F)c2cn(C(C(=O)Nc3nccs3)c3ncn4c3CCC43CC3)nc12` (stereo not given), for which the IC50 with BaF3 [1] was 1 nM; at D(2) dopamine receptor, 1000 nM; in data set [3] it was 1800 nM; against Glucocorticoid receptor, 3200 nM; in [15] it was 2 nM; in data set [16] it was 20 nM. For the same molecule, the inhibition in data set [2] turned out to be 94%; in [4] it was 90%. Besides, the GI50 in the data set on L-363 turned out to be 1320 nM; in the data set with SU-DHL-6 it was 1460 nM. For the same molecule, the clearance in [5] is 20 mL/min/kg. Further, the Vd in data set [6] was 10 L/kg. For the same molecule, in data set [7], the peak level (Cmax) was 135 ng/mL. Also, the AUC(0-t) at 24 h in data set [8] was 1790 ng·h/mL. The same molecule came in with a Tlast in data set [9] of 24 h. This molecule also returned an AUC(0-inf) in [10] of 871 ng·h/mL. In addition, the bioavailability in [11] was 22%. In addition, the inhibition in vivo at 10 mg/kg in the data set with BaF3 [12] worked out at 84%. Besides, the Activity entry in data set [13] and in data set [14] was “Non-Toxic” throughout.
